These results are taken from patent US20080138838A1, “DIAGNOSIS OF ZD1839 RESISTANT TUMORS” (CEDARS-SINAI MEDICAL CENTER, priority 2002, published 2008).

The subject of the experiment is androgen-independent human cell line CWR22R grown as a xenograft. Kind of experiment: ZD1839 resistant xenograft model of human prostate cancer. The format is in vivo. The method, then: The androgen-independent human cell line CWR22R was grown as a xenograft in nude mice. See Nagabhushan, et al. (1996) Cancer Res. 56:3042-3046; Agus, et al. (1999) J. Nat'l Cancer Inst. 91:1869-1876; and Bubendorf, et al. (1999) J. Nat'l Cancer Inst. 91:1758-1764. […] The mice were treated continuously with sub-therapeutic doses, and the tumors were allowed to grow for 3-4 weeks, before surgical removal of the tumors. The tumor from an individual mouse was then minced, and a small portion was then injected into a healthy nude mouse, establishing a second passage of the tumor. This mouse was then treated continuously with the same sub-therapeutic dose of ZD1839. This process was repeated 10 times, and a portion of each generation of xenograft tumor was collected. […] RNA from each generation of tumor was then isolated, and individual mRNA species were quantified using a custom Affymetrix GENECHIP® (DNA microarray chip) oligonucleotide microarray (Eos Hu03), with probes to interrogate approximately 46,000 unique mRNA transcripts. […] The gene products of the genes listed in Tables 1A-C may be particularly useful as targets in the treatment of ZD1839 resistant tumors derived from prostate cancer, small cell lung cancer, breast cancer, glioblastoma, cervical cancer, colon cancer, head and neck cancer, renal cell carcinoma, and pancreatic cancer. Prostate cancer includes epithelial neoplasms (e.g., adenocarcinoma, small cell tumors, transitional cell carcinoma, carcinoma in situ, and basal cell carcinoma), carcinosarcoma, non-epithelial neoplasms (e.g., mesenchymal and lymphoma), germ cell tumors, prostatic intraepithelial neoplasia (PIN), hormone independent prostate cancer, and metastatic prostate cancer (e.g., to bone, lung, or lymph node).

The structures appear in SMILES notation.

As for `COc1cc2ncnc(Nc3ccc(F)c(Cl)c3)c2cc1OCCCN1CCOCC1` [ZD1839], the “response of xenograft tumors to therapeutic doses of ZD1839” value is “fully resistant to therapeutic doses” (end of the process (passaging repeated 10 times under continuous sub-therapeutic doses, nude mice)) and “sensitive to therapeutic doses” (initially (parental CWR22R xenograft in nude mice)). The “resistance of xenograft tumors to therapeutic doses of ZD1839” value (successive passages in nude mice under continuous sub-therapeutic doses) is “increased with each generation”.
